Measured values reported in patent US20140205537A1, “LRRK2 INHIBITORS” (ZENOBIA THERAPEUTICS, INC., priority 2011, published 2014).

What was measured:
IRAK4 = molecular target: T1, IRAK4 (Homo sapiens, UniProt Q9NWZ3); assay: Kinase selectivity panel: IRAK4; assay type: biochemical
T1 sequence (Q9NWZ3 1-460): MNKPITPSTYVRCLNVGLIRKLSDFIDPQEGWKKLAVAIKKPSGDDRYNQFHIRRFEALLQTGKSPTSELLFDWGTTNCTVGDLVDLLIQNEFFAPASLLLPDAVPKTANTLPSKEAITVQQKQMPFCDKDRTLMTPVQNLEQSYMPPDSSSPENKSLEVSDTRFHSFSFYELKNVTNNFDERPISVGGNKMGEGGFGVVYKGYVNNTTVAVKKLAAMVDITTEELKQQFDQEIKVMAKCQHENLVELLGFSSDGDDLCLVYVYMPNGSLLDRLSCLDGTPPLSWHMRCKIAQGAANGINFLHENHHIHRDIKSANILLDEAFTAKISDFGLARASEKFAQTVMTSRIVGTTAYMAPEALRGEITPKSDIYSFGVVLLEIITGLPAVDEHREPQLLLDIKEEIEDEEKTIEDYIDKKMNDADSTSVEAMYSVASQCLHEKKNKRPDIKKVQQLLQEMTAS

G2019S LRRK2 = G2019S LRRK2 (Homo sapiens, UniProt Q5S007, G2019S); assay: G2019S LRRK2 inhibition (Invitrogen SelectScreen / TR-FRET biochemical assay); design: The protein construct used in the assay is GST tagged 969-2527; GST; purchased Invitrogen; conditions: numeric value
Procedure: IC50s were determined using Invitrogen's SelectScreen® Profiling Service for wild type and LRRK2 G2019S. The test compounds were screened in 1% DMSO (final) in the well.
a) % inhibition is measured at one concentration
b) a 10-point titration is run to ensure the kinase is inhibited within an expected IC50 range
Biochemical Assay Protocol:
Compound potency against wild-type and G2019S LRRK2 is measured via TR-FRET. The IC50, the amount of inhibitor required to inhibitor 50% of the protein under the given assay conditions, is determined by varying the amount of compound (500-0.001 uM) by serial dilution with 12-data points per compound, in duplicate. The substrate (Fluorescein-GAGRLGRDKYKTLRQIRQ) and ATP is fixed at 0.8 uM and 57 uM (KmATP), respectively. All assays are run in Corning low volume […] round bottomed plates. The assay is run in 50 mM Tris-HCl pH8.5, 10 mM MgCl2, 0.01% Brij-35, 1 mM EGTA, 2 mMDTT. The TR-FRET assay is an end-point assay where the reaction with protein, substrate, inhibitor and ATP is incubated for 1 hour at room temperature. The compound is pre-incubated with the protein and substrate prior to initiating the reaction with ATP. Phospho-transfer is detected using a Terbium labeled anti-pLRRKtide that binds to phosphorylated substrate creating FRET transfer when excited at 340 nm. Emissions signals are taken for terbium and FRET induced fluorescein at 495 nm and 520 nm, respectively, using a Biotek Synergy 2 spectrophotometer. The dose response is determined by plotting the emission ratio of 520/495 against the log of the inhibitor concentration. The maximum inhibition and non-inhibition controls is run on all plates. Staurosporine is used as the positive inhibition control and DMSO is used as the negative point control. A 12-point dose curve of Staurosporine is run as a dosing control. The IC50 is determined to be the inhibitor concentration at which 50% inhibition is achieved. The protein construct used in the assay is GST tagged 969-2527. The protein is commercially available from Invitrogen.
Alternatively, compounds of formulas (II), (I), (I-A), (I-B), (I-C), (I-D), (I-D-1), (I-D-2), (I-E), (I-F), (I-G), (I-H), (I-I), (I-I-1), (I-I-2), (I-J), (I-K), (I-L), (I-M), (I-N), (I-Z-1), (I-Z-2), (I-Z-2-a), (I-Z-2-b), (I-Z-2-c), (I-Z-2-d), (I-Z-3-a), (I-Z-3-b), (I-Z-3-c), or (I-Z-3-d) were tested using Invitrogen's SelectScreen® Profiling Service for LRRK2 G2019S.

CDK5/p35 = CDK5/p35 (Homo sapiens, UniProt Q00535); assay: Kinase selectivity panel: CDK5/p35; assay type: biochemical
MARK2 = MARK2 (Homo sapiens, UniProt Q7KZI7); assay: Kinase selectivity panel: MARK2; assay type: biochemical
CHEK1 = molecular target: T2, CHEK1 (Homo sapiens, UniProt O14757); assay: Kinase selectivity panel: CHEK1; assay type: biochemical
T2 sequence (O14757 1-476): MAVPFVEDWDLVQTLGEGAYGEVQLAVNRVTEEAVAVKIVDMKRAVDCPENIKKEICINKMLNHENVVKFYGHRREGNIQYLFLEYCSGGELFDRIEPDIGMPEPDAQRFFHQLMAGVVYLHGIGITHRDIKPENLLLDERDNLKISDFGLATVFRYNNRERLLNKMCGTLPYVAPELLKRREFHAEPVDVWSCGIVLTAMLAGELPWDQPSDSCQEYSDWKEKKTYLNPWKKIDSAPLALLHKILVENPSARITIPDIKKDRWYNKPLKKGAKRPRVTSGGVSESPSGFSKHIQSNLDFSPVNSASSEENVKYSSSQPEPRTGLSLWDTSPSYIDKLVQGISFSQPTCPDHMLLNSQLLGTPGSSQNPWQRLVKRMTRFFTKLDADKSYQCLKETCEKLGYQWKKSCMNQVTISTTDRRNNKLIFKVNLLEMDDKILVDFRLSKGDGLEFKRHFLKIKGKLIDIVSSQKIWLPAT

CAMK2D = CAMK2D (Homo sapiens, UniProt Q13557); assay: Kinase selectivity panel: CAMK2D; assay type: biochemical
AURKA = molecular target: T3, AURKA (Homo sapiens, UniProt O14965); assay: Kinase selectivity panel: AURKA; assay type: biochemical
T3 sequence (O14965 1-403): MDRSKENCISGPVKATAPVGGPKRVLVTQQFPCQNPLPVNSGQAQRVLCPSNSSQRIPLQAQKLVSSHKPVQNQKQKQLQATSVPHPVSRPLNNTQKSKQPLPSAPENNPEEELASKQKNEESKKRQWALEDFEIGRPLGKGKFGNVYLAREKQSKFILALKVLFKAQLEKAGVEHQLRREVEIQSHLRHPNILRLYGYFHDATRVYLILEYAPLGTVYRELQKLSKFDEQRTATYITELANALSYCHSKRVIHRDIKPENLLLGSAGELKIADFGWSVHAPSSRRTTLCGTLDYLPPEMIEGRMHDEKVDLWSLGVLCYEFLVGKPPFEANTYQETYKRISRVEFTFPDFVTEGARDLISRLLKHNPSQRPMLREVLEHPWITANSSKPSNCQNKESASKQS

ABL1 = ABL1 (Homo sapiens, UniProt P00519); assay: Kinase selectivity panel: ABL1; assay type: biochemical
Sequence of ABL1 (P00519 whole entry, species assumed): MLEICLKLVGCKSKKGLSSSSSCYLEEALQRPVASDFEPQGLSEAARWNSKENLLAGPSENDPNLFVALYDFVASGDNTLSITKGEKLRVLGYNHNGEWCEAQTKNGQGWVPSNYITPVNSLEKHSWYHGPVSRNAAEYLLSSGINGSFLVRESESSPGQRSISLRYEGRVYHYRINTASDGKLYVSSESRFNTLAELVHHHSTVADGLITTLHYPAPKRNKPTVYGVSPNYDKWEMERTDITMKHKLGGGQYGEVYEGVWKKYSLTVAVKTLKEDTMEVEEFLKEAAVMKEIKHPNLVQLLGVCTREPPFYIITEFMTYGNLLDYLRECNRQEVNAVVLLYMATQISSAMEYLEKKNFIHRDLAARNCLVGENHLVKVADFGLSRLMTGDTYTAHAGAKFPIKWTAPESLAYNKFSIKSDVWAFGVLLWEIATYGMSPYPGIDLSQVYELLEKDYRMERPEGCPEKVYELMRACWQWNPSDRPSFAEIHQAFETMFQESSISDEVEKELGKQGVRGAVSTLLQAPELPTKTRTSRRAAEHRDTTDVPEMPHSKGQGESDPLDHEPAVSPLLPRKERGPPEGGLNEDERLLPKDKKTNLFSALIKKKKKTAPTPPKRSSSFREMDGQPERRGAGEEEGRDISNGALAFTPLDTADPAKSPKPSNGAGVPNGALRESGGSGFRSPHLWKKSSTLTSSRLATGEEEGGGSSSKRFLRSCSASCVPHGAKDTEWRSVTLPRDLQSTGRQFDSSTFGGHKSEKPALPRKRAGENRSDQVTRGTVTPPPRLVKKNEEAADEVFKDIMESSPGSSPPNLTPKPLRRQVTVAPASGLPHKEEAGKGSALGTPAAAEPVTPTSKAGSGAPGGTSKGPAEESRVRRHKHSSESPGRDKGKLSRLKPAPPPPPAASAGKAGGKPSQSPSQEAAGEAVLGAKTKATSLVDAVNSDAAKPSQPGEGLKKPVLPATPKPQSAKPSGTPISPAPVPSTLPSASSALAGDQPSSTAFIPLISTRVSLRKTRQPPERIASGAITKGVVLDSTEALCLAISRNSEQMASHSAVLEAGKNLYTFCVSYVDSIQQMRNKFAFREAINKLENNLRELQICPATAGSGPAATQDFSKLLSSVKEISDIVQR

Sequence of MARK2 (Q7KZI7 whole entry, species assumed): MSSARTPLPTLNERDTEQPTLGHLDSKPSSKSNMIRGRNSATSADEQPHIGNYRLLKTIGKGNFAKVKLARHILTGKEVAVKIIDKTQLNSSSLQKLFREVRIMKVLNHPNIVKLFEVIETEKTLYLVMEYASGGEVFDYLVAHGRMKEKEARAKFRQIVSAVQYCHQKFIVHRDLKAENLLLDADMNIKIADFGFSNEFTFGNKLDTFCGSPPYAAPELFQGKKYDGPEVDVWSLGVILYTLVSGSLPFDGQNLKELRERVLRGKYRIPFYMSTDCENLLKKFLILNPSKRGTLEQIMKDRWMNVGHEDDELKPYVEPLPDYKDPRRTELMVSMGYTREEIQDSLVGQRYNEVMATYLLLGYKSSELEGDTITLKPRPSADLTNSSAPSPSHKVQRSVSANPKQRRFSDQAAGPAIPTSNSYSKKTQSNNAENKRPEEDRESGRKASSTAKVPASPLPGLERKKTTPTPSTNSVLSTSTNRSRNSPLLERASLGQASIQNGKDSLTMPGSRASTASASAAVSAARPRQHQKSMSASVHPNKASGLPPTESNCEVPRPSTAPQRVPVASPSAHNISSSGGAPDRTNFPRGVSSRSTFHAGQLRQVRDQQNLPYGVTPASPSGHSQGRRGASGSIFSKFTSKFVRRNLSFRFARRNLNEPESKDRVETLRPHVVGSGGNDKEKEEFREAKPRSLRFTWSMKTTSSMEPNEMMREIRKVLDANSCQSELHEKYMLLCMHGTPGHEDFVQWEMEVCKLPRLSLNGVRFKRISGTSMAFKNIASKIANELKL
Sequence of G2019S LRRK2 (Q5S007 969-2527 G2019S): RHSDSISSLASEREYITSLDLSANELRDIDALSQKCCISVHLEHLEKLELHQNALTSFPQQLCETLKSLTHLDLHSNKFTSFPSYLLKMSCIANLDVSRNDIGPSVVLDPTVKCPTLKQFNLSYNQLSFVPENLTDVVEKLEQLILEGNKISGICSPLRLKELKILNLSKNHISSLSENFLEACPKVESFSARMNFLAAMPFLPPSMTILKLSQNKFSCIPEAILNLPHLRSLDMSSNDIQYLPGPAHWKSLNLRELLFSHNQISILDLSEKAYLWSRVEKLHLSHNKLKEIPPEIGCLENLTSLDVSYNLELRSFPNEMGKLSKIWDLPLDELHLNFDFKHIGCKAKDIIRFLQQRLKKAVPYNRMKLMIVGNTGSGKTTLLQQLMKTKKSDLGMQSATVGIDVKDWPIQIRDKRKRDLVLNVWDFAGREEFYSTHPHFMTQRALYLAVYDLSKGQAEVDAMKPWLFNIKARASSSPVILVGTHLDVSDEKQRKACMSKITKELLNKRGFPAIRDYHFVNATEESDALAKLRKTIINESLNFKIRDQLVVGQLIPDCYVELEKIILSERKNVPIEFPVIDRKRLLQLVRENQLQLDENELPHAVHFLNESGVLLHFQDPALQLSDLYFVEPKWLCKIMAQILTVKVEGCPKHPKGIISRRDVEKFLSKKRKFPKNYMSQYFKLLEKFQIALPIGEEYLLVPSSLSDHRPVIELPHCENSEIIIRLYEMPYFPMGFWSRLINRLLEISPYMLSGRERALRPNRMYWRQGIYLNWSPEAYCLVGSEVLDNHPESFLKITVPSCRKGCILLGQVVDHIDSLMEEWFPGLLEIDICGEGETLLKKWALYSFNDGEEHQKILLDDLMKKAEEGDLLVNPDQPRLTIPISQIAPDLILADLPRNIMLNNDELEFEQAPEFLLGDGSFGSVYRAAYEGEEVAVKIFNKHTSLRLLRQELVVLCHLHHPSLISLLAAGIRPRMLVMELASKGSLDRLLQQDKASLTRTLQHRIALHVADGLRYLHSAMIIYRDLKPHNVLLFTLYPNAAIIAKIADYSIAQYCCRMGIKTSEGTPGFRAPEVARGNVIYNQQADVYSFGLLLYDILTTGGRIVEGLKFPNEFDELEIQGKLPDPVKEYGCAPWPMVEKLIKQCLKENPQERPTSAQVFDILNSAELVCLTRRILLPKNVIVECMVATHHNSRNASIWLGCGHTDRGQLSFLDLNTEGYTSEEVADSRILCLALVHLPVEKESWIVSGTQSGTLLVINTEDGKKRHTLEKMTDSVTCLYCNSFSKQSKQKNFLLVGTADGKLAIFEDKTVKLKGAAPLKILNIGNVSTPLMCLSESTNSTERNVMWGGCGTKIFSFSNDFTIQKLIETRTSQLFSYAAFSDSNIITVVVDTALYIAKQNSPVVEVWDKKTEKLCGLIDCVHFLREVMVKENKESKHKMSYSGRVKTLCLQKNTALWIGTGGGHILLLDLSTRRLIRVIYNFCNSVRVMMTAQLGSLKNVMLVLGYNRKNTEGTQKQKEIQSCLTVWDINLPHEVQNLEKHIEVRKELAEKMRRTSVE
Sequence of CDK5/p35 (Q00535 whole entry, species assumed): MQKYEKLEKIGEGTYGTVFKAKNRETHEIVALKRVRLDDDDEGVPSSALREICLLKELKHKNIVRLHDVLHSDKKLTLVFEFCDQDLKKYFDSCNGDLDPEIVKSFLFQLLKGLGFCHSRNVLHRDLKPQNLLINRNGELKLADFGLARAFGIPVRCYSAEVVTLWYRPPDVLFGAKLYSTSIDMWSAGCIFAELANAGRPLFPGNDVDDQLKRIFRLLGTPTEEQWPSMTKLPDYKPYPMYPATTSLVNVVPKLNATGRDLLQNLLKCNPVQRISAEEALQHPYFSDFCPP
Sequence of CDK5/p35 (Q15078 whole entry partner, species assumed): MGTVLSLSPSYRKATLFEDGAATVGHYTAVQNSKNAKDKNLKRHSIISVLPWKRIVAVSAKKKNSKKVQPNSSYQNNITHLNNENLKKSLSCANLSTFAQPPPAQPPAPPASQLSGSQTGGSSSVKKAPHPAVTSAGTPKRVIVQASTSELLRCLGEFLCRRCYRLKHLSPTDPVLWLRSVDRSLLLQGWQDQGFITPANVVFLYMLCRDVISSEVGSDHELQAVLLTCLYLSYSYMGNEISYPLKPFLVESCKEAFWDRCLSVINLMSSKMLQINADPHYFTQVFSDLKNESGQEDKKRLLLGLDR
Sequence of CAMK2D (Q13557 whole entry, species assumed): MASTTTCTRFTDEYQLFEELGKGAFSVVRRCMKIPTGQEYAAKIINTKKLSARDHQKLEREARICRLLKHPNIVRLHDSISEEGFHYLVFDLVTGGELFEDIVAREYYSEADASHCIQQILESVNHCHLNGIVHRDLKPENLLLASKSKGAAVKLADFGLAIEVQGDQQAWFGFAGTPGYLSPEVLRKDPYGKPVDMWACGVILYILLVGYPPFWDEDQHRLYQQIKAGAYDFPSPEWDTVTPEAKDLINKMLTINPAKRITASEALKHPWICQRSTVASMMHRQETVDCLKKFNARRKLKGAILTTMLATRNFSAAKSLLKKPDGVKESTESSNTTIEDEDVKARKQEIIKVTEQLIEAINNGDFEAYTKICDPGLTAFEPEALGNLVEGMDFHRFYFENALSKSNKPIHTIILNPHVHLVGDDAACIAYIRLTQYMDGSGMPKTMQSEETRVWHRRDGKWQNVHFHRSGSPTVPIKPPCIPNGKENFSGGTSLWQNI

SMILES | IC50 (IRAK4) [nM] | IC50 (G2019S LRRK2) [nM] | IC50 (CDK5/p35) [nM] | IC50 (MARK2) [nM] | IC50 (CHEK1) [nM] | IC50 (CAMK2D) [nM] | IC50 (AURKA) [nM] | IC50 (ABL1) [nM]
COc1ccc2c(c1)/C(=C/c1cnc(C(C)C)[nH]1)C(=O)N2 [Compound 12, (3Z)-3-[(2-isopropyl-1H-imidazol-5-yl)methylene]-5-methoxy-indolin-2-one] | 3440 | 7.6 | > 10000 | 1840 | > 10000 | 275 | 5260 | > 10000
COc1ccc2c(c1)/C(=C/c1cnc(C(C)(C)C)[nH]1)C(=O)N2 [Compound 19, (3Z)-3-[(2-tert-butyl-1H-imidazol-5-yl)methylene]-5-methoxy-indolin-2-one] | > 10000 | 43.9 | > 10000 | > 10000 | > 10000 | 1470 | > 10000 | > 10000
Cc1ncc(/C=C2\C(=O)Nc3ccc(OC(C)C)cc32)[nH]1 [Compound 14, (3Z)-5-isopropoxy-3-[(2-methyl-1H-imidazol-5-yl)methylene]indolin-2-one] | 655 | 1.2 | 258 | 434 | 999 | 615 | 50 | 860
